Results on ten molecules are retold here after patent US20100285957A1, “THIAZOLYLOXYPHENYLAMIDINES OR THIADIAZOLYLOXYPHENYLAMIDINES AND THEIR USE AS FUNGICIDES” (Bayer CropScience AG, priority 2007, published 2010).

The term logP denotes the decadic logarithm of the partition coefficient of the neutral form, usually between octanol and water. Low values mean lower lipophilicity, high ones higher lipophilicity.

Read-outs that look alike come from different tables or passages of the source.

One series concerns Sphaerotheca fuliginea. As to the kind of experiment: Sphaerotheca test (cucumber)/protective. The format is in vivo. The conditions noted are these: Podosphaera fuliginea, 168 h, 100 ppm active substance, protective, evaluation 7 days after inoculation, read-out: degree of effectiveness. The protocol:
Sphaerotheca Test (Cucumber)/Protective [table] To prepare a suitable active substance composition, 1 part by weight of active substance is mixed with the given amounts of solvents and emulsifier and the concentrate is diluted to the desired concentration using water. For the testing of protective effectiveness, young plants are sprayed with the active substance composition in the application rate given. After the spray coating has been dried on, the plants are inoculated with an aqueous suspension of spores of Sphaerotheca fuliginea. The plants are then placed in a greenhouse at approximately 23° C. and a relative humidity of approximately 70%. Evaluation is carried out 7 days after the inoculation. In this connection, 0% means a degree of effectiveness corresponding to that of the control, while a degree of effectiveness of 100% means that no infestation is observed.

The subject of the next series is Uromyces appendiculatus. Description: Uromyces test (beans)/protective. Type of series: in vivo. Conditions: 240 h, 100 ppm active substance, protective, evaluation 10 days after inoculation, read-out: degree of effectiveness. On the procedure:
Uromyces Test (Beans)/Protective [table] To prepare a suitable active substance composition, 1 part by weight of active substance is mixed with the given amounts of solvents and emulsifier and the concentrate is diluted to the desired concentration using water. For the testing of protective effectiveness, young plants are sprayed with the active substance composition in the application rate given. After the spray coating has been dried on, the plants are inoculated with an aqueous suspension of the spores of the bean rust pathogen Uromyces appendiculatus and then remain in an incubation chamber at approximately 20° C. and 100% relative humidity for 1 day. The plants are then placed in a greenhouse at approximately 21° C. and a relative humidity of approximately 90%. Evaluation is carried out 10 days after the inoculation. In this connection, 0% means a degree of effectiveness corresponding to that of the control, while a degree of effectiveness of 100% means that no infestation is observed.

Another series deals with Phakopsora pachyrhizi. As to the kind of experiment: Phakopsora test (soya)/protective. Type of series: in vivo. Conditions: 264 h, 100 ppm active substance, protective, evaluation 11 days after inoculation, read-out: degree of effectiveness. On the procedure: Phakopsora Test (Soya)/Protective
(§1) To prepare a suitable active substance composition, 1 part by weight of active substance is mixed with the given amounts of solvent and emulsifier and the concentrate is diluted to the desired concentration using water.
For the testing of protective effectiveness, young plants are sprayed with the active substance composition in the application rate given. After the spray coating has been dried on, the plants are inoculated with an aqueous suspension of the spores of Phakopsora pachyrhizi and then remain in an incubation chamber at approximately 20° C. and 80% relative humidity for 1 day.
Evaluation is carried out 11 days after the inoculation. In this connection, 0% means a degree of effectiveness corresponding to that of the control, while a degree of effectiveness of 100% means that no infestation is observed.

The subject of the next series is Alternaria solani. As to the kind of experiment: Alternaria test (tomato)/protective. Type of series: in vivo. Conditions: 168 h, 500 ppm active substance, protective, evaluation 7 days after inoculation, read-out: degree of effectiveness. The protocol:
Alternaria Test (Tomato)/Protective [table] To prepare a suitable active substance composition, 1 part by weight of active substance is mixed with the given amounts of solvent and emulsifier and the concentrate is diluted to the desired concentration using water. For the testing of protective effectiveness, young tomato plants are sprayed with the active substance composition in the application rate given. 1 day after the treatment, the plants are inoculated with a suspension of the spores of Alternaria solani and then stand at 100% relative humidity and 20° C. for 24 h. Subsequently, the plants stand at 96% relative humidity and a temperature of 20° C. Evaluation is carried out 7 days after the inoculation. In this connection, 0% means a degree of effectiveness corresponding to that of the control, while a degree of effectiveness of 100% means that no infestation is observed.

For another series, the system named is Pyrenophora teres. As to the kind of experiment: Pyrenophora teres test (barley)/protective. The format is in vivo. The conditions noted are these: 500 ppm active substance, protective, evaluation 7-9 days after inoculation, read-out: degree of effectiveness. The protocol:
Pyrenophora teres Test (Barley)/Protective
as §1
For the testing of protective effectiveness, young barley plants are sprayed with the active substance composition in the application rate given. 1 day after the treatment, the plants are inoculated with an aqueous suspension of the spores of Pyrenophora teres and then remain at 100% relative humidity and 20° C. for 48 h. Subsequently, the plants are placed in a greenhouse at 80% relative humidity and a temperature of 20° C.
Evaluation is carried out 7-9 days after the inoculation. In this connection, 0% means a degree of effectiveness corresponding to that of the control, while a degree of effectiveness of 100% means that no infestation is observed.

In series [1] the test system is Blumeria graminis f.sp. hordei. As to the kind of experiment: Blumeria graminis test (barley)/protective. Conditions: 168 h, 1000 ppm active substance, protective, evaluation 7 days after inoculation, read-out: degree of effectiveness. Type of series: in vivo. The protocol: Blumeria graminis Test (Barley)/Protective
as §1
For the testing of protective effectiveness, young plants are sprayed with the active substance composition in the application rate given.
After the spray coating has been dried on, the plants are dusted with spores of Blumeria graminis f.sp. hordei.
The plants are placed in a greenhouse at a temperature of approximately 20° C. and a relative humidity of approximately 80%, in order to encourage the development of mildew pustules.
Evaluation is carried out 7 days after the inoculation. In this connection, 0% means a degree of effectiveness corresponding to that of the control, while a degree of effectiveness of 100% means that no infestation is observed.

The subject of series [2] is Puccinia recondita var. tritici. Description: Puccinia test (wheat)/protective. The format is in vivo. The conditions noted are these: 240 h, 1000 ppm active substance, protective, evaluation 10 days after inoculation, read-out: degree of effectiveness. On the procedure:
Puccinia Test (Wheat)/Protective
as §1
For the testing of protective effectiveness, young plants are sprayed with the active substance composition in the application rate given. After the spray coating has been dried on, the plants are sprayed with a suspension of the conidia of Puccinia recondita var. tritici. The plants remain in an incubation chamber at 20° C. and 100% relative humidity for 48 hours.
The plants are then placed in a greenhouse at a temperature of approximately 20° C. and a relative humidity of 80%, in order to encourage the development of rust pustules.
Evaluation is carried out 10 days after the inoculation. In this connection, 0% means a degree of effectiveness corresponding to that of the control, while a degree of effectiveness of 100% means that no infestation is observed.

On to `CCN(C)C=Nc1cc(C)c(Oc2nc(C3CC3)ns2)cc1C` [Compound 1, N′-{4-[(3-Cyclopropyl-1,2,4-thiadiazol-5-yl)oxy]-2,5-dimethylphenyl}-N-ethyl-N-methylimidoformamide], for which the results for the pest or weed control at 100 ppm in the series with Sphaerotheca fuliginea, in the series on Uromyces appendiculatus and in the series on Phakopsora pachyrhizi were at least 70%, at least 70% and at least 80%, respectively. The pest or weed control at 500 ppm in the series with Alternaria solani and in the series with Pyrenophora teres was at least 70% in each case. Moreover, the pest or weed control at 1000 ppm in series [1] and in series [2] was at least 70% in each case. In addition, the logP in “physchem” (pH 2.3) worked out at 1.59.
With `Cc1cc(Oc2nc(C3CC3)ns2)c(C)cc1N=CN(C)C(C)C` [Compound 2, N′-{4-[(3-Cyclopropyl-1,2,4-thiadiazol-5-yl)oxy]-2,5-dimethylphenyl}-N-methyl-N-(1-methyl-ethyl)imidoformamide], the pest or weed control at 100 ppm in the series with Sphaerotheca fuliginea is at least 70%; in the series with Uromyces appendiculatus it was at least 70%; in the series with Phakopsora pachyrhizi, at least 80%. For the same molecule, the pest or weed control at 500 ppm in the series on Alternaria solani and with Pyrenophora teres was at least 70% throughout. Further, the pest or weed control at 1000 ppm in series [1] and in series [2] was at least 70% in each case. In “physchem” (pH 2.3), this molecule showed a logP of 1.91.
Consider `CCN(C)C=Nc1cc(C)c(Oc2nc(C3(Cl)CC3)cs2)cc1C` [Compound 5, N′-(4-{[4-(1-Chlorocyclopropyl)-1,3-thiazol-2-yl]oxy}-2,5-dimethylphenyl)-N-ethyl-N-methyl-imidoformamide], for which the pest or weed control at 100 ppm is at least 70% in the series with Sphaerotheca fuliginea, at least 70% in the series on Uromyces appendiculatus and at least 80% in the series with Phakopsora pachyrhizi. Besides, the pest or weed control at 500 ppm in the series with Alternaria solani and in the series on Pyrenophora teres was at least 70% throughout. Besides, the pest or weed control at 1000 ppm in series [1] and in series [2] was at least 70% throughout. The molecule also gave a logP in “physchem” of 4.8.
Take `Cc1cc(Oc2nc(C3(C)CC3)ns2)c(C)cc1N=CN(C)C(C)C` [Compound 10, N′-(2,5-Dimethyl-4-{[3-(1-methylcyclopropyl)-1,2,4-thiadiazol-5-yl]oxy}phenyl)-N-methyl-N-(1-methylethyl)imidoformamide]: the pest or weed control at 100 ppm was at least 70% in the series with Sphaerotheca fuliginea, at least 70% with Uromyces appendiculatus and at least 80% in the series on Phakopsora pachyrhizi. Besides, in the series with Pyrenophora teres, the pest or weed control at 500 ppm is at least 70%. Also, the pest or weed control at 1000 ppm in series [1] and in series [2] was at least 70% each time. The logP in the series “physchem” (pH 2.3) came out at 2.03.
For `CCN(C)C=Nc1cc(C)c(Oc2nc(C3(Cl)CC3)ns2)cc1C` [Compound 12, N′-(4-{[3-(1-Chlorocyclopropyl)-1,2,4-thiadiazol-5-yl]oxy}-2,5-dimethylphenyl)-N-ethyl-N-methylimidoformamide], the pest or weed control at 100 ppm is at least 70% in the series on Sphaerotheca fuliginea, at least 70% with Uromyces appendiculatus and at least 80% in the series with Phakopsora pachyrhizi. For the same molecule, in the series with Pyrenophora teres, the pest or weed control at 500 ppm was at least 70%. Also, the pest or weed control at 1000 ppm in series [1] and in series [2] was at least 70% throughout. Moreover, the logP in the series “physchem” (pH 2.3) worked out at 1.59.
`Cc1cc(Oc2nc(C3(Cl)CC3)c(Cl)s2)c(C)cc1N=CN(C)C(C)C` [Compound 17, N′-(4-{[5-Chloro-4-(1-chlorocyclopropyl)-1,3-thiazol-2-yl]oxy}-2,5-dimethylphenyl)-N-methyl-N-(1-methylethyl)imidoformamide]: the pest or weed control at 100 ppm in the series with Sphaerotheca fuliginea is at least 70%; with Uromyces appendiculatus it was at least 70%; in the series on Phakopsora pachyrhizi it was at least 80%. The pest or weed control at 500 ppm in the series with Pyrenophora teres was at least 70%. In addition, the pest or weed control at 1000 ppm in series [1] and in series [2] was at least 70% each time. The logP in “physchem” was determined as 5.86; in “physchem” (pH 2.3), 2.22.
With `Cc1cc(Oc2nc(C3(C)CC3)c(Cl)s2)c(C)cc1/N=C/N1CCCCC1` [Compound 24, 4-{[5-Chloro-4-(1-methylcyclopropyl)-1,3-thiazol-2-yl]oxy}-2,5-dimethyl-N-[(1E)-piperidin-1-ylmethylidene]aniline], the pest or weed control at 100 ppm in the series with Sphaerotheca fuliginea and in the series on Uromyces appendiculatus was at least 70% throughout. Further, the pest or weed control at 500 ppm with Alternaria solani and in the series with Pyrenophora teres was at least 70% throughout. The pest or weed control at 1000 ppm in series [1] and in series [2] was at least 70% each time. This molecule showed a logP in the series “physchem” (pH 2.3) of 2.34.
On to `CCN(C)C=Nc1cc(C)c(Oc2nc(C3(CC)C(C)C3(Cl)Cl)ns2)cc1C` (centres unmarked) [Compound 27, N′-(4-{[3-(2,2-Dichloro-1-ethyl-3-methylcyclopropyl)-1,2,4-thiadiazol-5-yl]oxy}-2,5-dimethylphenyl)-N-ethyl-N-methylimidoformamide], for which the pest or weed control at 100 ppm was at least 70% in the series on Sphaerotheca fuliginea, at least 70% in the series with Uromyces appendiculatus and at least 80% in the series on Phakopsora pachyrhizi. The pest or weed control at 500 ppm in the series with Pyrenophora teres is at least 70%. This molecule showed a logP in “physchem” (pH 2.3) of 2.21.
For `CCN(C)C=Nc1cc(C)c(Oc2nc(C3(F)CC3)cs2)cc1C` [Compound 29, N-Ethyl-N′-(4-{[4-(1-fluorocyclopropyl)-1,3-thiazol-2-yl]oxy}-2,5-dimethylphenyl)-N-methylimidoformamide], the pest or weed control at 100 ppm was at least 70% with Sphaerotheca fuliginea, at least 70% in the series on Uromyces appendiculatus and at least 80% with Phakopsora pachyrhizi. The pest or weed control at 500 ppm in the series with Alternaria solani and with Pyrenophora teres was at least 70% throughout. The logP in “physchem” stood at 4.38; in the series “physchem” (pH 2.3) it was 1.58.
Consider `CCN(C)C=Nc1cc(C)c(Oc2nc(C3(F)CC3)c(Cl)s2)cc1C` [Compound 30, N′-(4-{[5-Chloro-4-(1-fluorocyclopropyl)-1,3-thiazol-2-yl]oxy}-2,5-dimethylphenyl)-N-ethyl-N-methylimidoformamide], for which the pest or weed control at 100 ppm with Sphaerotheca fuliginea was at least 70%; in the series with Uromyces appendiculatus, at least 70%; in the series with Phakopsora pachyrhizi, at least 80%. Moreover, the pest or weed control at 500 ppm with Pyrenophora teres was at least 70%. In addition, the logP in “physchem” stood at 5.08; in “physchem” (pH 2.3), 1.92.
